Results published in ChEMBL document CHEMBL4359900 (Eur J Med Chem, 2019).
Active and inactive are the calls of the source. The rule behind the calls is not given here.

Key:
[1] = biological target: T1, 5-hydroxytryptamine receptor 2C (Homo sapiens, UniProt P28335); experiment: (§1) Agonist activity at recombinant human unedited 5HT2C receptor isoform INI expressed in Flp-In-293 cells assessed as increase in calcium influx measured for 300 secs by Fluo-4 dye based FLIPR assay; format: functional, cell-based
T1 sequence (P28335 whole entry): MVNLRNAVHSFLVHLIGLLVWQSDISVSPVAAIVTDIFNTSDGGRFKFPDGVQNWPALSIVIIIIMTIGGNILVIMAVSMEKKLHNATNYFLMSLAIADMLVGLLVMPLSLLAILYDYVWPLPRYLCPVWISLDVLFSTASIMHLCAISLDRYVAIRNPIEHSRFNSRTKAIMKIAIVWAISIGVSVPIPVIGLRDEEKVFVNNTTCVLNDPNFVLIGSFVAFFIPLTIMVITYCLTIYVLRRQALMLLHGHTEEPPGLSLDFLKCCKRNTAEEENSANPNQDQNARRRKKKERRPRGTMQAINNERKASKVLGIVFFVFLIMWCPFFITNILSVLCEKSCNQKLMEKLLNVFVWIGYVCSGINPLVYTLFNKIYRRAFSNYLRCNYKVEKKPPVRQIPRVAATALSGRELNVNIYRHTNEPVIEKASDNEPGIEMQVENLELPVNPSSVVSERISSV

[2] = biological target: T2, 5-hydroxytryptamine receptor 2C (Homo sapiens) (UniProt P28335); experiment: Agonist activity at recombinant human unedited 5HT2C receptor isoform INI expressed in Flp-In-293 cells assessed as increase in calcium influx measured for 300 secs by Fluo-4 dye based FLIPR assay relative to control; format: functional, cell-based
T2 sequence (whole entry): T1 sequence (P28335 whole entry)

[3] = biological target: T3, 5-hydroxytryptamine receptor 2B (Homo sapiens, UniProt P41595); experiment: Agonist activity at recombinant human 5HT2B receptor expressed in Flp-In-293 cells assessed as increase in calcium influx measured for 300 secs by Fluo-4 dye based FLIPR assay; format: cell-based
T3 sequence (P41595 whole entry): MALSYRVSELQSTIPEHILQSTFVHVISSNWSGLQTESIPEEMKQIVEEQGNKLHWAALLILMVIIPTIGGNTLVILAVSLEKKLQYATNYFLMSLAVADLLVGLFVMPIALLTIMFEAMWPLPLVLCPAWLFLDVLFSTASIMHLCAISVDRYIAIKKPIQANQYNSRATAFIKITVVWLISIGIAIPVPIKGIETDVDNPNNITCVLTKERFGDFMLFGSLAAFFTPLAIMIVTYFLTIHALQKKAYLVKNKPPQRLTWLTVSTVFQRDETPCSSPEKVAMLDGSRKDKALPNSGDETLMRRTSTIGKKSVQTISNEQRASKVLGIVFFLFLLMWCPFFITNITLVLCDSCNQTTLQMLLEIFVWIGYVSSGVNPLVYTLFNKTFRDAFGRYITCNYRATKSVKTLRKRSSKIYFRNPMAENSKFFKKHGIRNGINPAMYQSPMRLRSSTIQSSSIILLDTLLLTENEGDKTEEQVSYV

5-HT2B receptor = 5-HT2B receptor (Homo sapiens, UniProt P41595); experiment: Agonist activity at recombinant human 5HT2B receptor expressed in Flp-In-293 cells assessed as increase in calcium influx measured for 300 secs by Fluo-4 dye based FLIPR assay relative to control; format: cell-based; conditions: Flp-In-293 cells expressing recombinant human 5HT2B receptor
5-HT2B receptor, sequence (P41595 whole entry): as above

[4] = biological target: T4, 5-hydroxytryptamine receptor 2A (Homo sapiens, UniProt P28223); experiment: Agonist activity at recombinant human 5HT2A receptor expressed in Flp-In-293 cells assessed as increase in calcium influx measured for 300 secs by Fluo-4 dye based FLIPR assay; format: cell-based
T4 sequence (P28223 whole entry): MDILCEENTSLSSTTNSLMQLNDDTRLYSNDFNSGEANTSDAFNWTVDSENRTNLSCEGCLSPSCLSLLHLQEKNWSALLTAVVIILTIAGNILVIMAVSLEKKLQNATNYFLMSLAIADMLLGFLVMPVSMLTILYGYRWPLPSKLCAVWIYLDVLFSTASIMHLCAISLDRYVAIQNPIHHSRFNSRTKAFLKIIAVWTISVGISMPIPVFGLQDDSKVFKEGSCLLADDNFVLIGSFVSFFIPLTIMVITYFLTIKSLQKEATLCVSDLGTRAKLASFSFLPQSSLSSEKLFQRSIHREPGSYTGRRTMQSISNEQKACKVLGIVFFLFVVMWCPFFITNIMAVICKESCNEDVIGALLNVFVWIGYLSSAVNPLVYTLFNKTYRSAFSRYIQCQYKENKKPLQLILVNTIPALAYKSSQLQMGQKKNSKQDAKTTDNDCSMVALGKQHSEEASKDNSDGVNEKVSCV

5-HT2A receptor = 5-HT2A receptor (Homo sapiens, UniProt P28223); experiment: (§2) Agonist activity at recombinant human 5HT2A receptor expressed in Flp-In-293 cells assessed as increase in calcium influx measured for 300 secs by Fluo-4 dye based FLIPR assay relative to control; format: cell-based; conditions: Flp-In-293 cells expressing recombinant human 5HT2A receptor
5-HT2A receptor, sequence (P28223 whole entry, canonical isoform): as the sequence (P28223 whole entry) above

Homo sapiens = species: Homo sapiens; experiment: Selectivity ratio of EC50 for recombinant human 5HT2B receptor expressed in Flp-In-293 cells to EC50 for recombinant human unedited 5HT2C receptor isoform INI expressed in Flp-In-293 cells; format: cell-based
[5] = biological target: T4, 5-hydroxytryptamine receptor 2A; experiment: as §2; format: cell-based; conditions: flp-in-293, 5 min
[6] = biological target: T2, 5-hydroxytryptamine receptor 2C (Homo sapiens); experiment: as §1; format: functional, cell-based
[7] = biological target: T2, 5-hydroxytryptamine receptor 2C (Homo sapiens); experiment: Agonist activity at recombinant human unedited 5HT2C receptor isoform INI expressed in Flp-In-293 cells assessed as increase in calcium influx up to 10 uM measured for 300 secs by Fluo-4 dye based FLIPR assay; format: functional, cell-based
[8] = biological target: T3, 5-hydroxytryptamine receptor 2B; experiment: Agonist activity at recombinant human 5HT2B receptor expressed in Flp-In-293 cells assessed as increase in calcium influx up to 10 uM measured for 300 secs by Fluo-4 dye based FLIPR assay; format: cell-based; conditions: flp-in-293, 5 min
[9] = biological target: T4, 5-hydroxytryptamine receptor 2A; experiment: Agonist activity at recombinant human 5HT2A receptor expressed in Flp-In-293 cells assessed as increase in calcium influx up to 10 uM measured for 300 secs by Fluo-4 dye based FLIPR assay; format: cell-based; conditions: flp-in-293, 5 min
[10] = biological target: Serotonin 2 receptors; 5-HT2a & 5-HT2c (Homo sapiens) (UniProt P28223+P28335); experiment: Selectivity ratio of EC50 for recombinant human 5HT2A receptor expressed in Flp-In-293 cells to EC50 for recombinant human unedited 5HT2C receptor isoform INI expressed in Flp-In-293 cells; format: cell-based
Serotonin 2 receptors; 5-HT2a & 5-HT2c (Homo sapiens), sequence (P28223 whole entry, looked up, one chain of several, canonical isoform): as the sequence (P28223 whole entry) above

Structure (SMILES) | EC50 [1] [nM] | Emax [2] [%] | EC50 ([3]; read-out: EC50) [nM] | Emax at 5 min (5-HT2B receptor) [%] | EC50 [4] [nM] | Emax at 5 min (5-HT2A receptor) [%] | Ratio EC50 (Homo sapiens) | Emax [5] [%] | pEC50 [6] | Activity [7] | Activity [8] | Activity [9] | Ratio EC50 [10] | EC50 ([3]; read-out: pEC50 (converted)) [nM]
NCC1C(c2ccccc2)C1(F)F (racemic) | 4430 | 82 | 2350 | 62 | 3680 | 43 | – | – | – | – | – | – | – | –
NC[C@H]1C[C@]1(F)c1ccccc1 | 4.7 | 98 | 10 | 104 | 10 | 106 | 2 | – | – | – | – | – | – | –
NCCc1c[nH]c2ccc(O)cc12 [SEROTONIN] | – | – | – | – | – | – | – | 100 | – | – | – | – | – | –
NC[C@H]1C[C@]1(F)c1cccc(Cl)c1 | 12 | 110 | 22 | 91 | 23 | 102 | – | – | – | – | – | – | – | –
COc1ccccc1CNC[C@H]1C[C@]1(F)c1ccccc1 | 789 | 85 | 363 | 27 | 320 | 83 | – | – | – | – | – | – | – | –
Cl.NC[C@@H]1C[C@@]1(F)c1cccc(F)c1 | – | – | – | – | – | – | – | – | inactive | inactive | Not Active | Not Active | – | –
CNC[C@H]1C[C@]1(F)c1ccccc1 | 291 | 96 | 565 | 42 | 156 | 40 | – | – | – | – | – | – | – | –
Cl.NC[C@@H]1C[C@@]1(F)c1cccc(Cl)c1 | 1060 | 92 | – | – | – | – | – | – | – | – | Not Active | Not Active | – | –
Cc1cccc([C@]2(F)C[C@H]2CN)c1.Cl | 5250 | 97 | – | – | – | – | – | – | – | – | Not Active | Not Active | – | –
COc1ccccc1CNCC1CC1(F)c1cc(F)ccc1OC (racemic) | 229 | 103 | 285 | 61 | 31 | 92 | – | – | – | – | – | – | – | –
NC[C@@H]1C[C@@]1(F)c1ccccc1 | 4110 | 87 | 903 | 77 | 1830 | 47 | – | – | – | – | – | – | – | –
COc1ccc(F)cc1C1(F)CC1CN (racemic) | 598 | 90 | 116 | 79 | 352 | 86 | – | – | – | – | – | – | – | –
Cc1cccc([C@@]2(F)C[C@@H]2CN)c1.Cl | 8 | 96 | – | – | 162 | 71 | – | – | – | – | Not Active | – | 20 | –
Cl.NC[C@H]1C[C@]1(F)c1ccccc1Br | 312 | 71 | – | – | 122 | 38 | – | – | – | – | Not Active | – | – | –
Cl.NC[C@@H]1C[C@@]1(F)c1ccccc1Br | – | – | – | – | – | – | – | – | inactive | inactive | Not Active | Not Active | – | –
NC[C@H]1C[C@]1(F)c1cccc(F)c1 | 3 | 107 | 2 | 106 | 3 | 83 | – | – | – | – | – | – | – | 2.29
